In the NIST ThermoML archive (doi:10.1021/acs.jced.9b00703):
Numbers after ± are expanded uncertainties.

Key:
[1] = Molar enthalpy of transition or fusion; settings: Crystal; DSC
[2] = Crystal; DSC

In the case of OC[C@H]1O[C@@H](Oc2ccc(O)cc2)[C@H](O)[C@@H](O)[C@@H]1O [β-arbutin], the “Molar enthalpy of transition or fusion” value [1] is reported as 10.7 ± 0.382 kcal/mol and the Triple point temperature [2] is reported as 475.25 ± 0.87 K.
